Source: patent US20050171084A1, “Methods of treatment with lxr modulators” (priority 2002, published 2005)

What was measured:
[1] = system: NTW8 mouse microglial cells; assay: Secretion of pro-inflammatory mediators from LPS/IFN-γ stimulated microglia; type: cell-based; settings: LPS/INF-γ stimulated microglia cells, 24 hrs
Description: NTW8 mouse microglial cells were plated into a 96 well plate at a density of 2×10^5 cells/well in DMEM supplemented with 10% FCS, 2 mM glutamine, 10 ng/ml basic fibroblast growth factor (R&D Systems) and N-2 (Gibco). Next day, cell were stimulated for 24 hrs in DMEM containing 10 ng/ml LPS (Sigma) and 20 U/ml IFN-γ (Gibco) in the presence of increasing concentrations of the test compound solubilised in DMSO. Media was removed after 24 hrs and analysed by ELISA for secreted IL-6, TNF-α (R&D systems) and PGE2 (Amersham) or via a Greiss assay for nitric oxide (NO) production. Cell viability was assessed by an MTT assay (Promega). All data are means and SEM pooled from two independent experiments. Results are expressed as a percentage of the LPS\INF-γ stimulated control cells treated with DMSO alone.

[2] = system: Hippocampal neurons; assay: Neurite outgrowth in hippocampal neurons; type: cell-based, rat; settings: HC neurons, 48 hours, SEM in parentheses
Description: Hippocampal neurons: The hippocampi of gestational day 18 rat embryos were dissected out, incubated in trypsin (0.08%, 30 min at 37° C.) and dissociated mechanically (16). Hippocampal cells were resuspended in neurobasal medium supplemented with B27, anti-oxidants, 1 mM glutamine, 25 μM glutamate, 1 mM pyruvate. For outgrowth assays, cells were plated at a density of 3000 cells/well into 96 well dishes that had previously been coated with poly-D-lysine followed by 10% FCS and cultured for 48 hours.
(§1) The test compound was solubilised in DMSO and added to culture medium at time of cell plating at a dilution of 1:1000. Vehicle only (1:1000) was added to culture medium of untreated controls. Cells were fixed with 4% paraformaldehyde for 1 hour on ice, washed with PBS and stained using Coomassie. Assays were quantified using a KS300 image analysis system (Imaging Associates, UK). For each cell measured, the length from the edge of the cell to the end of the longest neurite was measured for 100 cells/well for each treatment in triplicate. All data are means and SEM pooled from three independent experiments. Results are expressed as a percentage of the length of neurites of cells treated with vehicle alone.

[3] = system: Cortical neurons; assay: Neurite outgrowth in cortical neurons; type: cell-based, rat; settings: CR neurons, 24 hours, standard error of triplicate wells in parentheses
Description: Cortical neurons: Cortex from gestational day 18-20 rat embryos were collected in HBSS on ice. Cells were dissociated as described for hippocampal neurons. Cells were pelted (200 g, 5 mins and resuspended in medium as described for hippocampal cells. Cells were plated at 6000 cells/well and cultured for 24 hours.
as §1

## O=C(O)Cc1cccc(OCCCN(Cc2cccc(C(F)(F)F)c2Cl)CC(c2ccccc2)c2ccccc2)c1 [Example 1, 2-(3-{3-[[2-Chloro-3-(trifluoromethyl)benzyl](2,2-diphenylethyl)amino]propoxy}-phenyl)acetic Acid]
[1]; ELISA (FIG. 2)
  secretion of IL-6: inhibited
  secretion of PGE2: inhibited
  secretion of TNF-α: inhibited
[1]; Greiss assay (FIG. 2)
  NO production: inhibited
[2]; 0.3 μm test compound
  length of longest neurite, percentage of cells treated with vehicle alone: 109 (6.25) %
[2]; 1.0 μm test compound
  length of longest neurite, percentage of cells treated with vehicle alone: 113 (5.05) %
[2]; 3.0 μm test compound
  length of longest neurite, percentage of cells treated with vehicle alone: 120 (7.75) %
[2]; 10.0 μm test compound
  length of longest neurite, percentage of cells treated with vehicle alone: 147 (11.8) %
[3]; 0.3 μm test compound
  length of longest neurite, percentage of cells treated with vehicle alone: 105 (1.79) %
[3]; 1.0 μm test compound
  length of longest neurite, percentage of cells treated with vehicle alone: 110 (2.4) %
[3]; 3.0 μm test compound
  length of longest neurite, percentage of cells treated with vehicle alone: 123.6 (6.6) %
[3]; 10.0 μm test compound
  length of longest neurite, percentage of cells treated with vehicle alone: 126.23 (2.5) %
